# Measured values reported in US20260042755A1, “GPR6 INVERSE AGONISTS” (MapLight Therapeutics, Inc., priority 2022, published 2026).
# Key:
# GPR6 = molecular target: T1, GPR6 (Homo sapiens, UniProt P46095); assay: GPR6 antagonist functional cAMP assay (LANCE Ultra cAMP TR-FRET, CHO cells stably expressing GPR6); assay type: cell-based; settings: CHO cells stably expressing GPR6, cAMP assay (Example 24)
# T1 construct: expressed in transfected cells; host or cells: CHO cells
# Procedure, shortened: (§1)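 Suspended cells were plated at 10,000 per well in Krebs-Ringer bicarbonate buffer containing 0.1% BSA and 150 μM Ro 20-1724, then treated with compounds for 45 min at 37 °C. Intracellular cAMP was then quantified by TR-FRET immunoassay.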
# GPR3 = molecular target: T2, GPR3 (Homo sapiens, UniProt P46089); assay: GPR3 antagonist functional cAMP assay (LANCE Ultra cAMP TR-FRET, CHO cells stably expressing GPR3); assay type: cell-based; settings: CHO cells stably expressing GPR3, cAMP assay (Example 24)
# T2 construct: expressed in transfected cells; host or cells: CHO cells
# T2 sequence (P46089 whole entry, species assumed): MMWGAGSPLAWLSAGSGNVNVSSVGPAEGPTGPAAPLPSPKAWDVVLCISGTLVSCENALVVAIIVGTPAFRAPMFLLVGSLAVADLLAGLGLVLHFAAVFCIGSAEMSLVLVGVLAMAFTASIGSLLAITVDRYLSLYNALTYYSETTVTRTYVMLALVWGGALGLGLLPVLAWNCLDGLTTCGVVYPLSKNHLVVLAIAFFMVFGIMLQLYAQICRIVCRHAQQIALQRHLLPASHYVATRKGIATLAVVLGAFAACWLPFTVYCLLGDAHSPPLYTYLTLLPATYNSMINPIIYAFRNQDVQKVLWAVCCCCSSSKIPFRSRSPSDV
# Procedure, shortened: as §1
# T1 sequence (P46095 whole entry): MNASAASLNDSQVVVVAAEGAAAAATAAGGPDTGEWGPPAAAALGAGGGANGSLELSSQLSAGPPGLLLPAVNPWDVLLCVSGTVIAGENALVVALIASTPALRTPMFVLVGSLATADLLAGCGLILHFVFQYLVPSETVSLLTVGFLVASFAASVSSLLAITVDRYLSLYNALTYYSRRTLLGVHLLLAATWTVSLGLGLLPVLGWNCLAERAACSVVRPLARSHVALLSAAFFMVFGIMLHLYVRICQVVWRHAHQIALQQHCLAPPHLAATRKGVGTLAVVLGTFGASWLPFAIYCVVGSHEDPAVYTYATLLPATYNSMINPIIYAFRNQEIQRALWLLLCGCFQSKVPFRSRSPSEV
IC50 (GPR6) [µM],IC50 (GPR3) [µM],SMILES
1 to 30,1 to 30,"CNC(=O)N1CCc2nc(N3CCC(Oc4ccc(F)cc4F)CC3)c(-c3cn[nH]c3)nc2C1 [Compound 180, 2-[4-(2,4-difluorophenoxy)piperidin-1-yl]-N-methyl-3-(1H-pyrazol-4-yl)-5H,6H,7H,8H-pyrido[3,4-b]pyrazine-6-carboxamide]"
1 to 30,1 to 30,"CNC(=O)N1CCc2nc(N3CCC(Oc4ccc(F)cc4F)CC3)c(-c3cnn(C4CCCCO4)c3)nc2C1 (stereo not shown) [Compound 181, 2-[4-(2,4-difluorophenoxy)piperidin-1-yl]-N-methyl-3-[1-(oxan-2-yl)-1H-pyrazol-4-yl]-5H,6H,7H,8H-pyrido[3,4-b]pyrazine-6-carboxamide]"
0.1 to 1,1 to 30,"CN(C)C(=O)N1CCc2nc(N3CCC(Oc4ccc(F)cc4F)CC3)c(-c3cnn(C4CCCCO4)c3)nc2C1 (stereo not shown) [Compound 182, 2-[4-(2,4-difluorophenoxy)piperidin-1-yl]-N,N-dimethyl-3-[1-(oxan-2-yl)-1H-pyrazol-4-yl]-5H,6H,7H,8H-pyrido[3,4-b]pyrazine-6-carboxamide]"
< 0.1,1 to 30,"COc1cccc(-c2nc3c(nc2N2CCN(Cc4cc(Cl)ccc4Cl)CC2)CCN(C(C)=O)C3)n1 [Compound 183, 1-(2-{4-[(2,5-dichlorophenyl)methyl]piperazin-1-yl}-3-(6-methoxypyridin-2-yl)-5H,6H,7H,8H-pyrido[3,4-b]pyrazin-6-yl)ethan-1-one]"
< 0.1,1 to 30,"O=C(C1COC1)N1CCc2nc(N3CCC(Oc4ccc(F)cc4F)CC3)c(-c3cn[nH]c3)nc2C1 [Compound 184, 4-(2,4-difluorophenoxy)-1-[6-(oxetane-3-carbonyl)-3-(1H-pyrazol-4-yl)-5H,6H,7H,8H-pyrido[3,4-b]pyrazin-2-yl]piperidine]"
0.1 to 1,1 to 30,"C=CC(=O)N1CCc2nc(N3CCC(Oc4ccc(F)cc4F)CC3)c(-c3cnn(C4CCCCO4)c3)nc2C1 (stereo not shown) [Compound 185, 1-{2-[4-(2,4-difluorophenoxy)piperidin-1-yl]-3-[1-(oxan-2-yl)-1H-pyrazol-4-yl]-5H,6H,7H,8H-pyrido[3,4-b]pyrazin-6-yl}prop-2-en-1-one]"
1 to 30,1 to 30,"CC(C)(C)OC(=O)N1CCCC1C(=O)N1CCc2nc(N3CCC(Oc4ccc(F)cc4F)CC3)c(-c3cnn(C4CCCCO4)c3)nc2C1 (stereo not shown) [Compound 186, tert-butyl 2-{2-[4-(2,4-difluorophenoxy)piperidin-1-yl]-3-[1-(oxan-2-yl)-1H-pyrazol-4-yl]-5H,6H,7H,8H-pyrido[3,4-b]pyrazine-6-carbonyl}pyrrolidine-1-carboxylate]"
< 0.1,1 to 30,"CN(C)C(=O)N1CCc2nc(N3CCC(Oc4ccc(F)cc4F)CC3)c(-c3cn[nH]c3)nc2C1 [Compound 187, 2-[4-(2,4-difluorophenoxy)piperidin-1-yl]-N,N-dimethyl-3-(1H-pyrazol-4-yl)-5H,6H,7H,8H-pyrido[3,4-b]pyrazine-6-carboxamide]"
0.1 to 1,1 to 30,"Cn1cc(-c2nc3cnccc3nc2N2CCC(C)(Oc3ccc(F)cc3F)CC2)cn1 [Compound 188, 4-(2,4-difluorophenoxy)-4-methyl-1-[3-(1-methyl-1H-pyrazol-4-yl)pyrido[3,4-b]pyrazin-2-yl]piperidine]"
0.1 to 1,1 to 30,"COc1ccc(-c2nc3c(nc2N2CCC(Oc4ccc(F)cc4F)CC2)CCN(C(C)=O)C3)nn1 [Compound 189, 1-{2-[4-(2,4-difluorophenoxy)piperidin-1-yl]-3-(6-methoxypyridazin-3-yl)-5H,6H,7H,8H-pyrido[3,4-b]pyrazin-6-yl}ethan-1-one]"
0.1 to 1,1 to 30,"COc1ncc(-c2nc3c(nc2N2CCC(Oc4ccc(F)cc4F)CC2)CCN(C(C)=O)C3)cn1 [Compound 190, 1-{2-[4-(2,4-difluorophenoxy)piperidin-1-yl]-3-(2-methoxypyrimidin-5-yl)-5H,6H,7H,8H-pyrido[3,4-b]pyrazin-6-yl}ethan-1-one]"
1 to 30,1 to 30,"COc1cnc(-c2nc3c(nc2N2CCC(Oc4ccc(F)cc4F)CC2)CCN(C(C)=O)C3)nc1 [Compound 191, 1-{2-[4-(2,4-difluorophenoxy)piperidin-1-yl]-3-(5-methoxypyrimidin-2-yl)-5H,6H,7H,8H-pyrido[3,4-b]pyrazin-6-yl}ethan-1-one]"
1 to 30,1 to 30,"COc1cnnc(-c2nc3c(nc2N2CCC(Oc4ccc(F)cc4F)CC2)CCN(C(C)=O)C3)c1 [Compound 192, 1-{2-[4-(2,4-difluorophenoxy)piperidin-1-yl]-3-(5-methoxypyridazin-3-yl)-5H,6H,7H,8H-pyrido[3,4-b]pyrazin-6-yl}ethan-1-one]"
1 to 30,1 to 30,"Cn1cc(-c2nc3cnc(Cl)cc3nc2N2CCN(Cc3ccc(F)cc3F)CC2)cn1 [Compound 193, 1-[7-chloro-3-(1-methyl-1H-pyrazol-4-yl)pyrido[3,4-b]pyrazin-2-yl]-4-[(2,4-difluorophenyl)methyl]piperazine]"
0.1 to 1,1 to 30,"Cn1cc(-c2nc3cnc(CO)cc3nc2N2CCN(Cc3ccc(F)cc3F)CC2)cn1 [Compound 194, (2-{4-[(2,4-difluorophenyl)methyl]piperazin-1-yl}-3-(1-methyl-1H-pyrazol-4-yl)pyrido[3,4-b]pyrazin-7-yl)methanol]"
0.1 to 1,1 to 30,"CC(=O)N1CCc2nc(N3CCC(Oc4ccc(F)cc4F)CC3)c(-c3cnn(CC(C)C)c3)nc2C1 [Compound 195, 1-{2-[4-(2,4-difluorophenoxy)piperidin-1-yl]-3-[1-(2-methylpropyl)-1H-pyrazol-4-yl]-5H,6H,7H,8H-pyrido[3,4-b]pyrazin-6-yl}ethan-1-one]"
1 to 30,1 to 30,"CC(=O)N1CCc2nc(N3CCC(Oc4ccc(F)cc4F)CC3)c(-c3cnn(C(C)(C)C#N)c3)nc2C1 [Compound 196, 2-(4-{6-acetyl-2-[4-(2,4-difluorophenoxy)piperidin-1-yl]-5H,6H,7H,8H-pyrido[3,4-b]pyrazin-3-yl}-1H-pyrazol-1-yl)-2-methylpropanenitrile]"
0.1 to 1,1 to 30,"CC(=O)N1CCc2nc(N3CCC(Oc4ccc(F)cc4F)CC3)c(C3=CCOCC3)nc2C1 [Compound 198, 1-{2-[4-(2,4-difluorophenoxy)piperidin-1-yl]-3-(3,6-dihydro-2H-pyran-4-yl)-5H,6H,7H,8H-pyrido[3,4-b]pyrazin-6-yl}ethan-1-one]"
0.1 to 1,1 to 30,"Fc1ccc(OC2CCN(c3nc4c(nc3-c3cn[nH]c3)CN(C3COC3)CC4)CC2)c(F)c1 [Compound 199, 4-(2,4-difluorophenoxy)-1-[6-(oxetan-3-yl)-3-(1H-pyrazol-4-yl)-5H,6H,7H,8H-pyrido[3,4-b]pyrazin-2-yl]piperidine]"
1 to 30,1 to 30,"N#CN1CCc2nc(N3CCC(Oc4ccc(F)cc4F)CC3)c(-c3cnn(C4CCCCO4)c3)nc2C1 (stereo not shown) [Compound 200, 2-[4-(2,4-difluorophenoxy)piperidin-1-yl]-3-[1-(oxan-2-yl)-1H-pyrazol-4-yl]-5H,6H,7H,8H-pyrido[3,4-b]pyrazine-6-carbonitrile]"
